Experimental data from patent US12103946B2, “Steroid compounds as Treg modulators and uses thereof” (New York University, priority 2018, dated 2024).
Entries after “also recorded” stand apart in the source; their conditions may differ.

Columns and labels:
[1] = system: naïve CD4+ T cells (Th1 or Th2 cells); test: In vitro Th1 and Th2 differentiation (IFN-γ, IL-4, T-bet, GATA3); type: cell-based, mouse; details: 20 μM, day 5
Protocol: In Vitro T Cell Culture. Naïve CD4^+ (CD62L^+ CD44^− CD25^− CD4^+) T cells were isolated from the spleens and the lymph nodes of mice of designated genotypes with FACS sorting. For certain experiments, naïve CD4^+ T cells were enriched using naïve CD4^+ T cell isolation kits (Miltenyi). Naïve CD4^+ T cells (40,000 cells) were cultured in a 96-well plate pre-coated with hamster IgG (MP Biomedicals) in T cell medium (RPMI, 10% fetal bovine serum, 25 mM glutamine, 55 μM 2-mercaptoethanol, 100 U/mL penicillin, […] streptomycin) supplemented with 0.25 μg/mL anti-CD3 (clone 145-2C11) and 1 μg/mL anti-CD28 (clone 37.51). For Th0 culture, T cells were cultured with the addition of 100 U/mL of IL-2 (PEPROTECH). For Th1 cell differentiation, T cells were cultured with the addition of 100 U/mL of IL-2, 10 μg/mL of anti-IL-4 (clone 11B11) and 10 ng/mL of IL-12 (PEPROTECH). For Th2 cell differentiation, T cells were cultured with the addition of 10 μg/mL of anti-IFNγ (clone XMG1.2) and 10 ng/mL of IL-4 (R&D Systems). For Th17 cell differentiation, T cells were cultured with the addition of 10 ng/mL of IL-6 (eBioscience) and 0.5 ng/mL of TGF-β (PEPROTECH). […]
Flow Cytometry. […] All flow cytometry analyses were performed on an LSR II flow cytometer (BD) and data were analyzed with FlowJo software (TreeStar).

naïve CD4+ T cells = test: Cell proliferation assay (CFSE); type: cell-based, mouse; details: 3 days, vs DMSO
Protocol: Data are representative of two independent experiments (b, d).
Cell Proliferation Assay. Naïve CD4^+ T cells were labeled with 1 μM carboxyfluorescein succinimidyl ester (CFSE, BioLegend) and cultured for 3 days prior to FACS analysis.

CD4+ T cells = test: TCR activation markers (CD25, CD69, Nur77, CD44); type: cell-based, mouse
From the text: Representative FACS plots of CD4^+ T cells cultured for 3 days and stained intracellularly for FoxP3 (e). Quantification of FoxP3^+ and viable T cells after 3-day culture (f) (n=2/group). n, number of biologically independent samples. Data are representative of two independent experiments (b, d). Data in (c) are shown as the mean±standard deviation.

[2] = biological target: T1, recombinant human RORγt ligand-binding domain (LBD) (Homo sapiens, UniProt P51449); test: Microscale thermophoresis assay; details: MST, read-out: equilibrium dissociation constant (Kd)
T1 sequence (P51449 269-508 limits assumed): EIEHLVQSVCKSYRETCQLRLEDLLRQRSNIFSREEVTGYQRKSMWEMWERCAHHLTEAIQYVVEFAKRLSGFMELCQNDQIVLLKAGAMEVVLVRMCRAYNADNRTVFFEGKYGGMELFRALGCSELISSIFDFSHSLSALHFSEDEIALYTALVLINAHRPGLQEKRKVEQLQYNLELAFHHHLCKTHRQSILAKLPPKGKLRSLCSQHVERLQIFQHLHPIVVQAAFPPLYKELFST
Protocol: We next examined if 3-oxoLCA physically interacts with the RORγt protein in vitro. A microscale thermophoresis (MST) assay was performed with recombinant human RORγt ligand-binding domain (LBD). […] Next, we examined if 3-oxoLCA modulates the transcriptional activity of RORγt. We assayed the effect of the bile acids on firefly luciferase expression directed by a fusion protein of RORγt and Gal4-DBD (DNA-binding domain) in human embryonic kidney (HEK) 293 cells^14.
Microscale Thermophoresis Assay. The binding affinity of the compounds with RORγ ligand-binding domain (LBD) was analyzed by microscale thermophoresis (MST). Purified RORγ-LBD was labeled with the Monolith NT™ Protein Labeling Kit RED (NanoTemper Technologies). Serially-diluted compounds, with concentrations of 1 mM to 20 nM, were mixed with 55 nM labeled RORγ-LBD at room temperature and loaded into Monolith™ standard-treated capillaries. Binding was measured by monitoring the thermophoresis with 20% LED power and ‘Medium’ MST power on a Monolith NT.115 instrument (Nano Temper Technologies) with the following time setting: 5s Fluo, Before; 20s MST On; and 5s Fluo, After. Kd values were fitted using the NT Analysis software (Nano Temper Technologies).

## C[C@H](CCC(=O)O)[C@H]1CC[C@H]2[C@@H]3CC[C@@H]4CC(=O)CC[C@]4(C)[C@H]3CC[C@]12C [3-oxoLCA, 3-oxolithocholic acid]
[1]
  T cell differentiation into Th1 or Th2 cells: neither compound affected T cell differentiation into Th1 or Th2 cells
naïve CD4+ T cells
  cell proliferation: do not significantly affect cell proliferation; also recorded: did not affect cell proliferation
CD4+ T cells
  T cell receptor (TCR)-mediated activation: do not significantly affect cell proliferation, cell viability, or T cell activation
[2]
  Kd: ~1 µM
